In patent US11576944B2, “Grape extracts and methods relating thereto” (priority 2016, dated 2023):
“Also recorded” adds a separate entry of the source.

How the values were obtained:
[1] = tested on: MCF7 human ER+ breast tumors; experiment: MCF7 ER+ breast tumors in athymic mice, with tamoxifen; assay type: in vivo, mouse; conditions: 5 weeks
Description: The mammary fat pads of athymic mice were injected with MCF7 human ER+ cells (1×10^6 cells) and tumor growth was measured every third day using a caliper.
The 4th inguinal mammary pads of athymic mice (female, 15-20 g, 5-6 weeks of age) were injected with 1×10^6 actively growing ZR-75-1 or MCF7 human ER+ breast cancer cells. The mice were group housed in cages with HEPA-filtered air on 12-h light/dark cycles and were fed regular rat chow ad libitum. Tumor size was measured twice a week in conscious animals, using a caliper, and tumor volume was calculated using the formula for a semi-ellipsoid (4/3πr^3)/2)]. […] After 7 weeks of treatment for the mice containing ZR-75-1 human ER+ breast tumors or 5 weeks of treatment for the mice containing MCF7 ER+ breast tumors, the mice were sacrificed and the tumors were removed and weighed.

[2] = tested on: ZR-75-1 human ER+ breast tumors; experiment: ZR-75-1 ER+ breast tumors in athymic mice, with tamoxifen; assay type: in vivo, mouse; conditions: 7 weeks
Description: The mammary fat pads of athymic mice were injected with ZR-75-1 ER+ cells (1×10^6 cells), and tumor growth was measured every third day using a caliper.
Sections were incubated with an antibody to Ki67, a marker of proliferation.
The 4th inguinal mammary pads of athymic mice (female, 15-20 g, 5-6 weeks of age) were injected with 1×10^6 actively growing ZR-75-1 or MCF7 human ER+ breast cancer cells. […] Tumor size was measured twice a week in conscious animals, using a caliper, and tumor volume was calculated using the formula for a semi-ellipsoid (4/3πr^3)/2)]. […] After 7 weeks of treatment for the mice containing ZR-75-1 human ER+ breast tumors or 5 weeks of treatment for the mice containing MCF7 ER+ breast tumors, the mice were sacrificed and the tumors were removed and weighed.

[3] = tested on: angiotensin II (Ang II)-induced hypertension; experiment: Ang II-induced hypertension and cardiac damage in rats; assay type: in vivo, rat; conditions: Ang II alone 24 μg/kg/h via osmotic mini-pump, at 4 weeks (from 120.4±2.4)
Description: The effect of p-MGE on hypertension and hypertension-induced cardiac damage was measured in rats with angiotensin II (Ang II)-induced hypertension. Sprague-Dawley rats (male, 8-12 weeks of age) were treated for 4 weeks with regular drinking water (Control), p-MGE alone (0.2 mg/mL of total phenolics in their drinking water), Ang II alone (24 μg/kg/h via implanted osmotic mini-pump) or p-MGE and Ang II. For a 250 g rat, this amount of p-MGE corresponds to approximately 20 mg phenolics/kg/day. Administration of p-MGE was initiated 1 week prior to treatment with Ang II. Blood pressure was recorded weekly by tail-cuff plethysmography, at the same time of day by the same individual. […] Scans to quantify cardiac parameters were taken in M mode parasternal short axis view at mid-papillary level, Tissue Doppler in 4 chamber view at the mitral annulus, and pulse wave Doppler in 4 chamber view to measure transmitral inflow. The ejection fraction of the heart and fractional shortening were measured in M mode parasternal short axis view at the mid-papillary level, using the VisualSonics Vevo 2100 High-Resolution Imaging System, as a measure of systolic function. […] Diastolic function was measured as e′, to assess the relaxation of the left ventricle, and E/e′, to assess the filling pressure of the left ventricle. […]

[4] = p-MGE 0.1 mg phenolics/mL drinking water, tamoxifen ~32 mg/kg/d in chow, or both
[5] = p-MGE 0.1 mg phenolics/mL, tamoxifen ~32 mg/kg/d, or both

Compound	tumor volume / growth [1, 4]	tumor weight [1, 5]	tumor volume / growth [2, 4]	Ki67 positive cells in tumor sections [2, 5]	tumor weight [2, 5]	systolic blood pressure (tail cuff) [3]
CC/C(=C(\c1ccccc1)c1ccc(OCCN(C)C)cc1)c1ccccc1 [tamoxifen]	reduced the growth of both ER+ tumors; also recorded: also reduced tumor size	also reduced tumor weight	reduced the growth of both ER+ tumors; also recorded: also reduced tumor size	associated with a reduction in the number of cells which were positive for the proliferation marker Ki67; also recorded: also significantly reduced proliferation	also reduced tumor weight	–
angiotensin II (DRVYIHPF; Angiotensin-2; UniProt P01015 25-32, looked up) [Ang II, used to induce hypertension in rats]	–	–	–	–	–	213.1±6.8 mm Hg
